Source: ChEMBL document CHEMBL1201862, “PubChem BioAssay data set” (2004)
Activity calls are given as the source filed them. Cut-off read from the data, not from the text of the source: actives have a measured IC50 and inactives only a lower limit.

Molecular target: Envelope glycoprotein gp160 (Human immunodeficiency virus 1, UniProt Q6QLK5)
Experiment: cell-free HIV fusion peptide-binding blockers – biochemical, uHTS, fluorescence dequenching, […] (AID 1986)

Envelope glycoprotein gp160, sequence (Q6QLK5 whole entry, the tested form may be a part): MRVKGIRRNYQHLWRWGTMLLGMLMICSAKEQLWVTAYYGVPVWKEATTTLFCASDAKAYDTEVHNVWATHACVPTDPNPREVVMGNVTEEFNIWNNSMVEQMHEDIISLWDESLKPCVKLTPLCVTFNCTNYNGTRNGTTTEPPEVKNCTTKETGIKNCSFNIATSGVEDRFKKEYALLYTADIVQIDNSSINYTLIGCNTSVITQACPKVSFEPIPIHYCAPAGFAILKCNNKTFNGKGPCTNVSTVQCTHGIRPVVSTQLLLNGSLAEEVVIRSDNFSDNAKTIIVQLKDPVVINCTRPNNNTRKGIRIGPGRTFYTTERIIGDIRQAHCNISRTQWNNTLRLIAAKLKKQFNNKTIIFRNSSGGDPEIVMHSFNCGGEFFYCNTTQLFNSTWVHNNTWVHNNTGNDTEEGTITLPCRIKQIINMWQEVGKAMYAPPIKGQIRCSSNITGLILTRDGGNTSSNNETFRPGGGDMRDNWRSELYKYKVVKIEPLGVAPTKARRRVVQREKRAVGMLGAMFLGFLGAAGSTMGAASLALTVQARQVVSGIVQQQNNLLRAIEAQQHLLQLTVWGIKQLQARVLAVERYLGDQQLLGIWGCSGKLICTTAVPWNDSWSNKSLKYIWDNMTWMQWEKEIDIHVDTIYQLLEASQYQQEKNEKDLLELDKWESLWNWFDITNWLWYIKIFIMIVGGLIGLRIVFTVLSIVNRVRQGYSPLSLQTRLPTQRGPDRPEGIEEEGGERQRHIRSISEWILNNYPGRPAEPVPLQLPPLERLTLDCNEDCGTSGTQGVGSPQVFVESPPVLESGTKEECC

Row | Structure (SMILES) | IC50
1 | CCOc1cc(/C=C2/C(=N)N3C(=NC2=O)SN=C3S(=O)(=O)C(C)C)ccc1OC(=O)c1ccco1 | 14.8 µM (active)
2 | CCc1nnc(NS(=O)(=O)c2ccc(NC(=O)/C=C/c3ccccc3Cl)cc2)s1 | 23.7 µM (active)
3 | COc1ccc(C(=O)COC(=O)c2ccccc2NS(=O)(=O)c2ccc(O)c([N+](=O)[O-])c2)cc1 | 16.4 µM (active)
4 | N=C1/C(=C\c2ccc(-c3cccc(C(=O)O)c3)o2)C(=O)N=C2SC=C(c3ccccc3)N12 | 6.64 µM (active)
5 | Cc1noc(NS(=O)(=O)c2ccc(NC(=O)Nc3ccc(Cl)c(Cl)c3)cc2)c1C | 19.8 µM (active)
6 | CC(C)S(=O)(=O)C1=NSC2=NC(=O)/C(=C\c3ccc(OC(=O)c4ccco4)cc3)C(=N)N21 | 26.7 µM (active)
7 | O=C(O)c1cc(NC(=O)c2ccc(Br)cc2)cc(NC(=O)c2ccc(Br)cc2)c1 | 29.4 µM (active)
8 | Brc1ccc(N/N=C(/N=Nc2nn[nH]n2)c2ccccc2)cc1 | 29.5 µM (active)
